According to ChEMBL document CHEMBL1201862, “PubChem BioAssay data set” (2004):
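Compound exposure: 48 hours, 5 concentrations, 96-well plates. GI50 is the concentration that inhibits growth by half.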 Calls of active or inactive are those of the source. Rule as the data show it: active = GI50 up to about 1.1 µM and inactive = higher.

What was measured:
Test in all cases: NCI-60 cell line screen, 48 h
[1] = system: A498
[2] = system: BT-549
[3] = system: CAKI-1
[4] = system: DU-145
[5] = system: HOP-92
[6] = system: MDA-N
[7] = system: Malme-3M
[8] = system: NCI-H460
[9] = system: OVCAR-3
[10] = system: OVCAR-4
[11] = system: OVCAR-5
[12] = system: RXF 393
[13] = system: SF-268
[14] = system: SF-295
[15] = system: SF-539
[16] = system: SK-MEL-28
[17] = system: SK-MEL-5
[18] = system: SK-OV-3
[19] = system: SNB-19
[20] = system: SW-620

| SMILES | GI50 [1] | GI50 [2] | GI50 [3] | GI50 [4] | GI50 [5] | GI50 [6] | GI50 [7] | GI50 [8] | GI50 [9] | GI50 [10] | GI50 [11] | GI50 [12] | GI50 [13] | GI50 [14] | GI50 [15] | GI50 [16] | GI50 [17] | GI50 [18] | GI50 [19] | GI50 [20] |
| --- | --- | --- | --- | --- | --- | --- | --- | --- | --- | --- | --- | --- | --- | --- | --- | --- | --- | --- | --- | --- |
| Cc1ccc(Nc2n[nH]c(NS(=O)(=O)c3cc(C)c(Cl)cc3S)n2)cc1 | > 100 µM (inactive) | > 100 µM (inactive) | > 100 µM (inactive) | > 100 µM (inactive) | > 100 µM (inactive) | > 100 µM (inactive) | > 100 µM (inactive) | > 100 µM (inactive) | > 100 µM (inactive) | > 100 µM (inactive) | > 100 µM (inactive) | > 100 µM (inactive) | > 100 µM (inactive) | > 100 µM (inactive) | > 100 µM (inactive) | > 100 µM (inactive) | > 100 µM (inactive) | > 100 µM (inactive) | > 100 µM (inactive) | > 100 µM (inactive) |
| O=S1(=O)CCN(c2ccccc2CC(c2c[nH]c3ccccc23)c2c[nH]c3ccccc23)CC1 | 10 µM (inactive) | 11.9 µM (inactive) | 9.16 µM (inactive) | 7.43 µM (inactive) | 5.37 µM (inactive) | 3.92 µM (inactive) | 11.5 µM (inactive) | 2.67 µM (inactive) | 5.53 µM (inactive) | 7.91 µM (inactive) | 14.1 µM (inactive) | 7.03 µM (inactive) | 5.19 µM (inactive) | 8.02 µM (inactive) | 11.9 µM (inactive) | 8.73 µM (inactive) | 6.61 µM (inactive) | 8.67 µM (inactive) | 12.3 µM (inactive) | 3.92 µM (inactive) |
| C=CC(=O)N1C/C(=C\c2ccc([N+](=O)[O-])cc2)C(=O)/C(=C/c2ccc([N+](=O)[O-])cc2)C1 | 0.28 µM (active) | 0.194 µM (active) | 0.128 µM (active) | 0.621 µM (active) | 0.811 µM (active) | 0.169 µM (active) | 0.201 µM (active) | 0.147 µM (active) | 0.132 µM (active) | 0.233 µM (active) | 0.29 µM (active) | 0.142 µM (active) | < 0.0403 µM (active) | 0.208 µM (active) | < 0.019 µM (active) | 0.275 µM (active) | 0.719 µM (active) | 1.52 µM (inactive) | 1.16 µM (inactive) | 0.0304 µM (active) |
| Nc1ccn(C2OC(COC(=O)C34CC5CC(CC(C5)C3)C4)C(O)C2O)c(=O)n1 (stereo unspecified) | > 45.5 µM (inactive) | > 100 µM (inactive) | > 100 µM (inactive) | > 100 µM (inactive) | > 100 µM (inactive) | > 100 µM (inactive) | > 100 µM (inactive) | 0.392 µM (active) | > 100 µM (inactive) | > 100 µM (inactive) | > 100 µM (inactive) | > 100 µM (inactive) | > 50.5 µM (inactive) | > 100 µM (inactive) | > 100 µM (inactive) | 52.4 µM (inactive) | > 100 µM (inactive) | > 79.8 µM (inactive) | > 79.8 µM (inactive) | > 100 µM (inactive) |
| O=c1[nH]cc(/C=N\Nc2ccccc2)c(=O)[nH]1 | > 100 µM (inactive) | > 100 µM (inactive) | > 100 µM (inactive) | > 100 µM (inactive) | > 100 µM (inactive) | > 100 µM (inactive) | > 100 µM (inactive) | 47.8 µM (inactive) | 21.8 µM (inactive) | > 100 µM (inactive) | > 100 µM (inactive) | > 100 µM (inactive) | > 100 µM (inactive) | 25.7 µM (inactive) | > 100 µM (inactive) | > 100 µM (inactive) | 11.6 µM (inactive) | > 100 µM (inactive) | > 100 µM (inactive) | > 100 µM (inactive) |
| Clc1ccc(C2=C(c3ccccc3)C(c3ccc(Cl)cc3)N3C(=N[C@H]4CCCC[C@@H]43)N2)cc1 (stereo partly specified) | 17.3 µM (inactive) | 14.6 µM (inactive) | 16.1 µM (inactive) | 13.2 µM (inactive) | 9.59 µM (inactive) | 14.7 µM (inactive) | 16.5 µM (inactive) | 2.99 µM (inactive) | 13.8 µM (inactive) | 9.2 µM (inactive) | 16.3 µM (inactive) | 13.9 µM (inactive) | 19.9 µM (inactive) | 11.6 µM (inactive) | 15.3 µM (inactive) | 13.7 µM (inactive) | 12.3 µM (inactive) | 17.1 µM (inactive) | 14.5 µM (inactive) | 8.05 µM (inactive) |
| Cc1ccc(-n2cnc3c(N)nc(N)nc32)cc1 | > 100 µM (inactive) | > 100 µM (inactive) | > 100 µM (inactive) | > 100 µM (inactive) | > 100 µM (inactive) | > 100 µM (inactive) | > 100 µM (inactive) | – | > 100 µM (inactive) | > 100 µM (inactive) | > 100 µM (inactive) | 43.6 µM (inactive) | > 100 µM (inactive) | > 100 µM (inactive) | > 100 µM (inactive) | > 100 µM (inactive) | > 100 µM (inactive) | > 100 µM (inactive) | > 100 µM (inactive) | > 100 µM (inactive) |
| CC(=O)NCCCCN(CCCNC(C)=O)C(=O)OCc1ccccc1 | > 100 µM (inactive) | > 100 µM (inactive) | > 100 µM (inactive) | > 100 µM (inactive) | > 100 µM (inactive) | > 100 µM (inactive) | > 100 µM (inactive) | > 100 µM (inactive) | > 100 µM (inactive) | > 100 µM (inactive) | > 100 µM (inactive) | > 100 µM (inactive) | > 100 µM (inactive) | > 100 µM (inactive) | > 100 µM (inactive) | > 100 µM (inactive) | > 100 µM (inactive) | > 100 µM (inactive) | – | > 100 µM (inactive) |
| Cc1ccc(S(=O)(=O)NN=C2CCCCCCCCCCC2)cc1 | > 100 µM (inactive) | > 100 µM (inactive) | > 100 µM (inactive) | > 100 µM (inactive) | > 100 µM (inactive) | > 100 µM (inactive) | > 100 µM (inactive) | > 100 µM (inactive) | > 100 µM (inactive) | > 100 µM (inactive) | > 100 µM (inactive) | 58.1 µM (inactive) | > 100 µM (inactive) | > 100 µM (inactive) | > 100 µM (inactive) | > 100 µM (inactive) | > 100 µM (inactive) | > 100 µM (inactive) | > 100 µM (inactive) | > 100 µM (inactive) |
| CC(Br)C(=O)NC(CO)C(=O)O (stereo unspecified) | > 100 µM (inactive) | > 100 µM (inactive) | > 100 µM (inactive) | > 100 µM (inactive) | > 100 µM (inactive) | > 100 µM (inactive) | > 100 µM (inactive) | > 100 µM (inactive) | > 100 µM (inactive) | > 100 µM (inactive) | > 100 µM (inactive) | > 100 µM (inactive) | > 100 µM (inactive) | > 100 µM (inactive) | > 100 µM (inactive) | > 100 µM (inactive) | > 100 µM (inactive) | > 100 µM (inactive) | > 100 µM (inactive) | > 100 µM (inactive) |
| O=C(NO)c1cccc(OCc2ccc(Br)cc2)c1 | 8.93 µM (inactive) | 7.71 µM (inactive) | 3.11 µM (inactive) | 3.13 µM (inactive) | 7.8 µM (inactive) | 9.02 µM (inactive) | 2.37 µM (inactive) | 3.06 µM (inactive) | 3.85 µM (inactive) | 5.24 µM (inactive) | 12.6 µM (inactive) | 3.52 µM (inactive) | 4.03 µM (inactive) | 4.79 µM (inactive) | 4.72 µM (inactive) | 14.2 µM (inactive) | 3.98 µM (inactive) | 5.21 µM (inactive) | 9.35 µM (inactive) | 6.55 µM (inactive) |
| CC1=C(O)C(=O)C=C2C1=CC=C1[C@@]2(C)CC[C@@]2(C)C3C[C@@H](C)C(=O)[C@@H](O)[C@]3(C)CC[C@]12C (stereo partly specified) | 6.32 µM (inactive) | 1.75 µM (inactive) | 1.47 µM (inactive) | 1.79 µM (inactive) | 2.03 µM (inactive) | 1.69 µM (inactive) | 1.97 µM (inactive) | 5.58 µM (inactive) | 1.88 µM (inactive) | 3.32 µM (inactive) | 4.23 µM (inactive) | 1.9 µM (inactive) | 3.38 µM (inactive) | 4.55 µM (inactive) | 2.14 µM (inactive) | 1.95 µM (inactive) | 3.35 µM (inactive) | 9.04 µM (inactive) | 4.15 µM (inactive) | 1.24 µM (inactive) |
| CC(C)(Br)C(Br)CCC1(C2CO2)CO1 (stereo unspecified) | > 5 µM (inactive) | > 5 µM (inactive) | > 5 µM (inactive) | > 5 µM (inactive) | > 5 µM (inactive) | > 5 µM (inactive) | > 5 µM (inactive) | – | > 5 µM (inactive) | > 5 µM (inactive) | – | > 5 µM (inactive) | > 5 µM (inactive) | > 5 µM (inactive) | > 5 µM (inactive) | > 5 µM (inactive) | > 5 µM (inactive) | > 5 µM (inactive) | > 5 µM (inactive) | > 5 µM (inactive) |
| N#Cc1c(N)nc2c(C#N)c(N)cc3c2c1Oc1ccccc1-3 | > 100 µM (inactive) | > 100 µM (inactive) | > 100 µM (inactive) | > 100 µM (inactive) | > 100 µM (inactive) | > 100 µM (inactive) | > 100 µM (inactive) | > 100 µM (inactive) | > 100 µM (inactive) | > 100 µM (inactive) | > 100 µM (inactive) | > 100 µM (inactive) | > 100 µM (inactive) | > 100 µM (inactive) | > 100 µM (inactive) | > 100 µM (inactive) | > 100 µM (inactive) | > 100 µM (inactive) | > 100 µM (inactive) | > 100 µM (inactive) |
